# From patent publication US5639745A, “Fused-bicyclic lactams as interleukin-1β converting enzyme inhibitors” (Sanofi, priority 1995, dated 1997)
# Tests used:
# ICE (IL-1β protease) = target: T1, ICE (IL-1β protease) (Homo sapiens, UniProt P29466); assay: enzyme assay, second order rates of inactivation of ICE; assay type: biochemical; conditions: in vitro; read-out: kobs/[I] (IL-1β protease inhibition, second order rate of inactivation)
# T1 sequence (P29466 120-297 limits assumed): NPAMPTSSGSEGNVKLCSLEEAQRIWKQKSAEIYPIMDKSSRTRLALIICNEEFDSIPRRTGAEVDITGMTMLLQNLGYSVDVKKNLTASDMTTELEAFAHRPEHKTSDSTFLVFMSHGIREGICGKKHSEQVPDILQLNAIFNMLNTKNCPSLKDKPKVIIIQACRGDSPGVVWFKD
# T1 sequence (P29466 317-404 limits assumed): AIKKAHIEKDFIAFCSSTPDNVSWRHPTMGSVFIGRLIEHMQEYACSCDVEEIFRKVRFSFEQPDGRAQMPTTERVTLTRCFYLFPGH
# Description: Second order rates of inactivation were obtained by using the enzyme assay described in Dolle, R. E.; et al., J. Med Chem. (1994), 37, 563. […] In the case of these reversible inhibitors, the in vitro assay was modified to obtain the reversible Ki * as follows: […]
# [1] = system: mature IL-1β release from human monocytes; assay: human monocyte pulse chase assay, inhibition of release of mature IL-1β (called In Vivo Assay); assay type: cell-based; conditions: human monocytes stimulated with fixed S. aureus
# Experimental: In vivo inhibition (IC50) was determined as follows:
# Human monocytes were isolated from heparinized leukopheresis units obtained through Biological Specialty Corporation (Lansdale, Pa.). Monocytes were purified by Ficoll-Hupaque (Pharmacia Fine Chemicals, Piscataway, N.J.) gradient centrifugation and more than 95% pure monocyte populations obtained by centrifugal elutriation. The assay was performed on duplicate samples of freshly isolated human monocytes, cultured in suspension at 37° C. and rotated gently in conical bottom polypropylene tubes (Sardstedt Inc., Princeton, N.J.). Human monocytes at a concentration of 5×10^6 cells/mL were resuspended in 1 mL of RPMI 1640 (a common tissue buffer from M. A. Bioproducts, Walkersville, Md.) containing 1% fetal calf serum (FCS) (HyClone, Logan, Utah) and 50 μg/mL gentamycin (Gibco, Grand Island, N.Y.). The cells were treated either with a compound of the invention (i.e. test compound) or with a non-inhibitor (control compound, typically 0.03% DMSO) for 15 minutes and then activated with 0.01% fixed Staphylococcus aureus (The Enzyme Center, Malden, Mass.) for 1 hour. The cells were then centrifuged and resuspended in 1 mL of cysteine, methionine-free RPMI media containing 1% dialyzed FCS (Hyclone). The cells were pretreated with a test compound or control compound for 15 minutes after which 0.01% fixed S. aureus plus 100 μCi Tran 35-S label (ICN, Irvine, Calif.) was added and the cells incubated at 37° C. for 1 hour. After incubation, cells were centrifuged, washed once in phosphate buffer saline and resuspended in 1 mL RPMI containing 1% fetal calf serum. The cells were again pretreated with a test or control compound for 15 minutes and then 0.01% S. aureus for 2 hours. At the end of the incubation, cells were centrifuged and supernates saved for immunoprecipitation. Cells were washed once in phosphate buffer saline and then lysed in RIPA, a continuous cell media buffer containing 2 mM phenylmethylsulfonyl fluoride, 10 mM iodoacetate, 1 μg/mL pepstatin A, 1 μg/mL leupeptin and 0.5 TIU aprotinin.
# For the immunoprecipitations, an equal volume of 1% dry milk in RIPA buffer plus 50 μL of resuspended protein A sepharose CL-4B (Pharmacia, Piscataway, N.Y.) was added to supernates and 1 mL of 4% dry milk containing protein A sepharose CL-4B to cell lysates and samples rotated for 30 minutes at 4° C. Beads were then centrifuged down, samples transferred to fresh tubes and incubated overnight with 40 μg rabbit anti-human IL-1β polyclonal antibody (Genzyme, Cambridge, Mass.). The IL-1β proteins were then precipitated with 70 μL protein A sepharose, resuspended in 60 μL SDS sample buffer and run on 15% SGD-PAGE gels. Autoradiography was performed on dried gels and the amount of radioactivity (counts per minute, cpm) quantitated using a Betascope 603 analyzer.
# In the monocyte pulse chase assay, each test parameter was run in duplicate. Data was collected from the Beta Scope using a personal computer, then transferred to the VAX system for calculation of mean cpm and standard deviation of the mean. When test compounds were evaluated, the percent inhibition of release of mature IL-1β was calculated as follows:
# 100×[1-(cells treated with stimuli+test compound-unstimulated cells)/(cells treated with stimuli+control compound-unstimulated cells)]
# These % inhibition values were then used to calculate IC50 value for each compound. Since the human monocyte pulse chase assay uses primary cells from different donors, each test compound was run in 2-3 separate experiments, using monocytes from 2-3 different donors.
# IL-1 receptor = conditions: cited from earlier work
Compound,kinact/KI (ICE (IL-1β protease)) [M⁻¹ s⁻¹],IC50 [1] [µM],"joint swelling and disease activity (IL-1 receptor; after three weeks of daily treatment, subcutaneous)","antiinflammatory activity (IL-1 receptor; patients with active rheumatoid arthritis, subcutaneous 20, 70 and 200 mg)","effectiveness by dosing frequency (IL-1 receptor; subcutaneous 20, 70 and 200 mg)"
"CN1CCN(Cc2ccc(C(=O)N[C@H]3CCC(=O)N4CCC[C@@H](C(=O)N[C@@H](CC(=O)O)C(=O)COC(=O)c5c(Cl)cccc5Cl)N4C3=O)cc2)CC1 [Example 14, [9-(N-[4-(N-Methylpiperazino)methyl]benzoylamino)octahydro-6,10-dioxo-6H-pyridazino [1,2a][1,2]diazepine-1-formoyl]-L-aspartic acid 2,6-dichlorobenzoyloxymethyl ketone]",> 10000,< 10,,,
O=C(O)C[C@H](NC(=O)[C@@H]1CCCN2C(=O)CC[C@H](NC(=O)OCc3ccccc3)C(=O)N12)C(=O)COc1cc(C(F)(F)F)nn1-c1ccccc1 [Example 4],> 10000,< 10,,,
"CCOC(=O)n1nnc2cc(C(=O)N[C@H]3CCC(=O)N4CCC[C@@H](C(=O)N[C@@H](CC(=O)O)C(=O)COC(=O)c5c(Cl)cccc5Cl)N4C3=O)ccc21 [Example 18, [9-(N-Carboethoxy-5-bentriazoylamino)octahydro-6,10-dioxo-6H-pyridazino[1,2 a][1,2]diazepine-1-formoyl]-L-aspartic acid 2,6-dichlorobenzoyloxymethyl ketone]",> 10000,< 10,,,
O=C(O)C[C@H](NC(=O)[C@@H]1CCCN2C(=O)CC[C@H](NC(=O)OCc3ccccc3)C(=O)N12)C(=O)COc1cc(C(F)(F)F)nn1-c1ccc(Cl)cn1 [Example 24],> 10000,< 10,,,
CN(C)Cc1ccc(C(=O)N[C@H]2CCC(=O)N3CCC[C@@H](C(=O)N[C@@H](CC(=O)O)C(=O)COC(=O)c4c(Cl)cccc4Cl)N3C2=O)cc1 [Example 11],> 10000,< 10,,,
O=C(O)C[C@H](NC(=O)[C@@H]1CCCN2C(=O)CC[C@H](NC(=O)OCc3ccccc3)C(=O)N12)C(=O)COC(=O)c1c(Cl)cccc1Cl [Example 3],> 10000,< 10,,,
O=C(O)C[C@H](NC(=O)[C@@H]1CCCN2CCC[C@H](NC(=O)OCc3ccccc3)C(=O)N12)C(=O)COC(=O)c1c(Cl)cccc1Cl [Example 23],> 10000,< 10,,,
"CCOC(=O)n1cnc2cc(C(=O)N[C@H]3CCC(=O)N4CCC[C@@H](C(=O)N[C@@H](CC(=O)O)C(=O)COC(=O)c5c(Cl)cccc5Cl)N4C3=O)ccc21 [Example 19, [9-(N-Carboethoxy-5-benzimidazoylamino)octahydro-6,10-dioxo-6H-pyridazino[1 ,2a][1,2]diazepine-1-formoyl]-L-aspartic acid 2,6-dichlorobenzoyloxymethyl ketone]",> 10000,< 10,,,
"O=C(O)C[C@H](NC(=O)[C@@H]1CCCN2C(=O)CC[C@H](NC(=O)c3ccc4[nH]cnc4c3)C(=O)N12)C(=O)COC(=O)c1c(Cl)cccc1Cl [Example 16, [9-(5-Benzimidazoylamino)octahydro-6,10-dioxo-6H-pyridazino[1,2a][1,2]diazepine-1-formoyl]-L-aspartic acid 2,6-dichlorobenzoyloxymethyl ketone]",> 10000,< 10,,,
"O=C(O)C[C@H](NC(=O)[C@@H]1CCCN2C(=O)CC[C@H](NC(=O)c3ccc(CN4CCOCC4)cc3)C(=O)N12)C(=O)COC(=O)c1c(Cl)cccc1Cl [Example 13, [9-(4-(N-Morpholinomethyl)benzoylamino)octahydro-6,10-dioxo-6H-pyridazino[1 ,2a][1,2]diazepine-1-formoyl]-L-aspartic acid 2,6-dichlorobenzoyloxymethyl ketone]",> 10000,< 10,,,
"Antril: The IL-1 receptor antagonist, Antril (Synergen)",,,decrease in joint swelling and less disease activity,significant antiinflammatory activity,most effective when taken daily
"Cc1nccn1Cc1ccc(C(=O)N[C@H]2CCC(=O)N3CCC[C@@H](C(=O)N[C@@H](CC(=O)O)C(=O)COC(=O)c4c(Cl)cccc4Cl)N3C2=O)cc1 [Example 15, [9-(4-(N-(2-Methyl)imidazolylmethyl)benzoylamino)octahydro-6,10-dioxo-6H-pyridazino[1,2a][1,2]diazepine-1-formoyl]-L-aspartic acid 2,6-dichlorobenzoyloxymethyl ketone]",> 10000,< 10,,,
CN(C)Cc1ccc(C(=O)N[C@H]2CCC(=O)N3CCC[C@@H](C(=O)N[C@@H](CC(=O)O)C(=O)COc4cc(C(F)(F)F)nn4-c4ccccn4)N3C2=O)cc1 [Example 25],> 10000,< 10,,,
"O=C(O)C[C@H](NC(=O)[C@@H]1CCCN2C(=O)CC[C@H](NC(=O)c3ccc4[nH]nnc4c3)C(=O)N12)C(=O)COC(=O)c1c(Cl)cccc1Cl [Example 17, [9-(5-Bentriazoylamino)octahydro-6,10-dioxo-6H-pyridazino[1,2a][1,2]diazepine-1-formoyl]-L-aspartic acid 2,6-dichlorobenzoyloxymethyl ketone]",> 10000,< 10,,,
O=C(O)C[C@H](NC(=O)[C@@H]1CCCN2C(=O)CC[C@H](NC(=O)OCc3ccccc3)C(=O)N12)C(=O)COc1cc(C(F)(F)F)nn1-c1ccccn1 [Example 6],> 10000,< 10,,,

# More lines, main results first:
kinact/KI (ICE (IL-1β protease)) [M⁻¹ s⁻¹],IC50 [1] [µM],Compound,"joint swelling and disease activity (IL-1 receptor; after three weeks of daily treatment, subcutaneous)","antiinflammatory activity (IL-1 receptor; patients with active rheumatoid arthritis, subcutaneous 20, 70 and 200 mg)","effectiveness by dosing frequency (IL-1 receptor; subcutaneous 20, 70 and 200 mg)"
> 10000,< 10,O=C(O)C[C@H](NC(=O)[C@@H]1CCCN2C(=O)CC[C@H](NC(=O)c3ccccc3)C(=O)N12)C(=O)COc1cc(C(F)(F)F)nn1-c1ccc(Cl)cc1 [Example 7],,,
> 10000,< 10,CC(C)COC(=O)N[C@H]1CCC(=O)N2CCC[C@@H](C(=O)N[C@@H](CC(=O)O)C(=O)COc3cc(C(F)(F)F)nn3-c3ccc(Cl)cc3)N2C1=O [Example 10],,,
> 10000,< 10,O=C(O)CCCc1ccc(C(=O)N[C@H]2CCC(=O)N3CCC[C@@H](C(=O)N[C@@H](CC(=O)O)C(=O)COc4cc(C(F)(F)F)nn4-c4ccc(Cl)cc4)N3C2=O)cc1 [Example 20],,,
> 10000,< 10,O=C(O)CSc1ccc(C(=O)N[C@H]2CCC(=O)N3CCC[C@@H](C(=O)N[C@@H](CC(=O)O)C(=O)COc4cc(C(F)(F)F)nn4-c4ccc(Cl)cc4)N3C2=O)cc1 [Example 8],,,
> 10000,< 10,O=C(O)C[C@H](NC(=O)[C@@H]1CCCN2C(=O)CC[C@H](NC(=O)OCc3ccccc3)C(=O)N12)C(=O)COc1cc(C(F)(F)F)nn1-c1ccc(Cl)cc1 [Example 5],,,
> 10000,< 10,CN(C)Cc1ccc(C(=O)N[C@H]2CCC(=O)N3CCC[C@@H](C(=O)N[C@@H](CC(=O)O)C(=O)COc4cc(C(F)(F)F)nn4-c4ccc(Cl)cc4)N3C2=O)cc1 [Example 1],,,
> 10000,< 10,O=C(O)CCc1ccc(C(=O)N[C@H]2CCC(=O)N3CCC[C@@H](C(=O)N[C@@H](CC(=O)O)C(=O)COc4cc(C(F)(F)F)nn4-c4ccc(Cl)cc4)N3C2=O)cc1 [Example 12],,,
> 10000,< 10,O=C(O)CCSc1ccc(C(=O)N[C@H]2CCC(=O)N3CCC[C@@H](C(=O)N[C@@H](CC(=O)O)C(=O)COc4cc(C(F)(F)F)nn4-c4ccc(Cl)cc4)N3C2=O)cc1 [Example 9],,,
